Consider four compounds from publication PMC5540818 (Chemical biology & drug design, 2017).

The structures appear in SMILES notation. Structures can show the parent of a compound that is named as a salt.

Data set [1] is described as follows: Solubility in aqueous buffer. The class given is physicochemical.
Data set [2] deals with Sa-SrtA (Staphylococcus aureus, UniProt Q2FV99). To be noted: read-out: Sa-SrtA IC50; values taken from reference; cited from earlier work.
For data set [3], the target named is SrtA (Staphylococcus aureus, UniProt Q2FV99). The conditions noted are these: read-out: SrtA IC50; cited from earlier work.
In data set [4] the test system is S. aureus infections. The conditions noted are these: dosed at 20 (DMMA) and 40 (triazolothiadiazole) mg of compound per kg of animal; cited from earlier work.

SrtA, sequence (Q2FV99 60-206): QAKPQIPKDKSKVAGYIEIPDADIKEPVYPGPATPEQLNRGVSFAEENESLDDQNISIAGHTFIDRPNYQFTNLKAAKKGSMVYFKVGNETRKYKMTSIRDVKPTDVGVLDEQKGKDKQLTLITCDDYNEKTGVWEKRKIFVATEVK
Sa-SrtA, sequence (Q2FV99 60-206): as above

Regarding `CCOc1c(S)cnn(-c2ccccc2)c1=O` [2-10], the “solubility in aqueous solvent” value in data set [1] (aqueous solvent) is listed as “poorly soluble”. Moreover, the concentration for half-maximal inhibition (IC50) (commonly the concentration that gives 50% inhibition) in data set [2] was 13 ± 1 µM.
On to `CCOc1c(S)cnn(-c2ccccc2)c1=O` [2-salt, 5-ethoxy-6-oxo-1-phenyl-1,6-dihydropyridazine-4-thiolate], for which the solubility entry in data set [1] (aqueous buffer) is “up to 75 mM”.
For `COc1ccc(/C(C#N)=C/c2cc(OC)ccc2OC)cc1` [DMMA, (Z)-3-(2,5-dimethoxyphenyl)-2-(4-methoxyphenyl) acrylonitrile], in data set [3], the half-maximal inhibitory concentration (IC50) is 9.2 µM. Besides, the “efficacy in treating potentially lethal S. aureus infections in animal models” value in data set [4] was “efficacious”.
As to `O=S(=O)([O-])c1ccccc1-c1nn2c(-c3ccncc3)nnc2s1.[Na+]` [triazolothiadiazol, 3-(4-pyridinyl)-6-(2-sodiumsulfonatephenyl)[1,2,4]triazolo[3,4-b][1,3,4]thiadiazole], the half-maximal inhibitory concentration (IC50) in data set [3] is 9.3 µM. The “efficacy in treating potentially lethal S. aureus infections in animal models” value in data set [4] is “efficacious”.
